Source: paper doi:10.1101/2022.06.14.496144v1, “Crystal structure and functional peculiarities of a primordial Orange Carotenoid Protein (OCPX)” (biorxiv, 2022)
Changes are numbered by the printed parent chain.

Columns and labels:
Assay type in all cases: binding
ΔNTE-GlOCPX = biological target: T1, ΔNTE-GlOCPX (Gloeobacter kilaueensis, UniProt U5QHX0); assay: co-purified holoprotein, absorbance, photocycle; conditions: pH 7.6; ECH-producing E. coli
T1 construct: gene GKIL_2275; N-terminal extension M1-P17 removed, E. coli C41(DE3) making ECH, His-3C tag
T1 sequence (U5QHX0 18-322): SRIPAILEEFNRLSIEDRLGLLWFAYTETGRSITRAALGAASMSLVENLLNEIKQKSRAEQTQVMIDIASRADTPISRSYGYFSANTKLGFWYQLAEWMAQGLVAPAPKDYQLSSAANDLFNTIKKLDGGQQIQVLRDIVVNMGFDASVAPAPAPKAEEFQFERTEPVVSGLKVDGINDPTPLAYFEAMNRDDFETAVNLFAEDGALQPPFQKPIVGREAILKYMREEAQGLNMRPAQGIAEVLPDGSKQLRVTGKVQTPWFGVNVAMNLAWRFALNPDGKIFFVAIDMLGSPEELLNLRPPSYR

GlOCPX [1] = biological target: T2, GlOCPX (Gloeobacter kilaueensis, UniProt U5QHX0, E25A); assay: X-ray crystal structure, […] Å; conditions: between NTD and CTD; pH 6.5 crystals
T2 construct: gene GKIL_2275; full length M1-R322, codon-optimised, E. coli C41(DE3) making ECH or CAN, His tag cut by 3C leaving N-terminal GPH
T2 sequence (U5QHX0 1-322 E25A): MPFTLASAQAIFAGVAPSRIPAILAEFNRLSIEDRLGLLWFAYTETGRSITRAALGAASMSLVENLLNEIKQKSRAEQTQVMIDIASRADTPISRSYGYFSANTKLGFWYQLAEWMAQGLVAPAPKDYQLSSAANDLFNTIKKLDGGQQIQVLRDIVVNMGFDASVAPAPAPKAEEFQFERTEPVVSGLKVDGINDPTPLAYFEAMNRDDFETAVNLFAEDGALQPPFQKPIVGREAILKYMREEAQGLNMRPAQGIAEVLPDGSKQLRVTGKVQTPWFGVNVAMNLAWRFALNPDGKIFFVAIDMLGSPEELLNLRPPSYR

GlOCPX [2] = biological target: T3, GlOCPX (Gloeobacter kilaueensis, UniProt U5QHX0); assay: co-purified holoprotein, SEC with absorbance spectra, photocycle; conditions: pH 7.6; ECH-producing E. coli
T3 construct: gene GKIL_2275; full length M1-R322, codon-optimised, E. coli C41(DE3) making ECH or CAN, His tag cut by 3C leaving N-terminal GPH
T3 sequence (U5QHX0 1-322): T2 sequence (U5QHX0 1-322 E25A) with A25E

Structure (SMILES): CC1=C(/C=C/C(C)=C/C=C/C(C)=C/C=C/C=C(C)/C=C/C=C(C)/C=C/C2=C(C)C(=O)CCC2(C)C)C(C)(C)CCC1 [ECH, echinenone]
- co-purified holoprotein, absorbance, photocycle (ΔNTE-GlOCPX): All samples uniformly contained ECH as a cofactor
- X-ray crystal structure, 1.7 Å (GlOCPX [1]): A well-defined density revealed that the GlOCPX-embedded carotenoid is echinenone (ECH)
- co-purified holoprotein, SEC with absorbance spectra, photocycle (GlOCPX [2]): produced GlOCPX in Escherichia coli strains synthesizing ketocarotenoids canthaxanthin (CAN) or echinenone (ECH)
